Data reported in patent US10646565B2, “Treatment of alzheimer'S disease (AD) with an aluminum salt” (AFFIRIS AG, priority 2014, dated 2020).

How the values were obtained:
[1] = test system: patients with early AD; test: AFF006 clinical trial: adverse event summary of local reactions; type: in vivo, human
Procedure: AFF006 was conducted as a randomized, placebo-controlled, parallel group, double-blind, multi-center phase II study and assessed the clinical and immunological activity as well as the safety and tolerability of repeated s.c. administrations of i.a. aluminium (different doses) in patients with early AD, as defined in the protocol. It was performed in a total of 6 countries: Austria, France, Germany, Slovakia, Czech Republic and Croatia.
The clinical trial comprised 10 regular outpatient visits and 6 telephone interviews. Up to four weeks before start of treatment, a screening visit (Visit 1) was performed to ensure suitability of the patients for the clinical trial and to establish the patients' baseline characteristics. Following screening, eligible patients were randomly allocated to the treatment groups. After randomization at week 0, patients received 6 injections with either 1 or 2 mg aluminium. Injections were applied s.c. by the investigator at weeks 0, 4, 8, 12, 40 and 65 (Visit 2, 3, 4, 5, 7 and 9).
At Visits 2, 3, 4, 5, 6, 7 and 9 possible local and systemic reactions to the vaccine and vital signs (blood pressure, heart rate, respiratory rate and body temperature) were assessed. In addition, a physical and neurological examination was performed. Efficacy parameters were assessed at Visits 1, 2, 3, 5, 6, 7, 8, 9, 10. The final visit (Visit 10) was performed twelve weeks after the last administration of study drug (Visit 9). An early discontinuation visit (EDV) was performed when a patient discontinued from the clinical trial.
During the study Visits 2, 3, 4, 5, 7 and 9 the patient received study drug by the investigator, in total: six injections over a 65-week treatment period. Injections were applied to the external surface of the upper arm, approximately 8-10 cm above the elbow. Prerequisite regarding the actual site was the presence of an intact regional lymph node station. If the draining lymph node stations of both upper arms were not intact, injection was placed into the thigh close to the inguinal lymph nodes. Two alternating injection sites (e.g. left and right upper arm, left upper arm and left thigh) were used throughout the 6 injections.
Injections were applied to the subcutaneous tissue (s.c.). Special care was taken to avoid […] application by careful aspiration before each injection. All administrations were performed at the trial site.
Safety evaluations included the following:
adverse events (AEs) and serious adverse events (SAEs) (number of patients who withdrew due to AEs; reason for withdrawal)

[2] = test system: patients with early AD; test: AFF006 clinical trial: adapted ADAS-cog, adapted ADCS-ADL and Composite score; type: in vivo, human
Description: The present invention provides for the first time an AD treatment that is disease modifying. The effectiveness of the treatment according to the present invention is proven by the parameters required by the drug authorisation authorities, especially the EMEA and the US-FDA. For example, the EMEA guideline for AD treatment requires primary endpoints reflecting the cognitive and the functional domain. Accordingly, a combined (Composite) score is used for the clinical assessment of the present invention. This composite score combines two established scores, one for the cognitive function (ADAS-cog (Alzheimer's Disease Assessment Scale-cognitive subscale)) and one for the functional ability (ADCS-ADL (Alzheimer's Disease Co-operative Study—Activities of Daily Living Inventory)). The adapted ADAS-cog combines items that assess cognitive function. The adapted ADCS-ADL includes items that are sensitive to functional ability. […]
Combined composite according to the present invention: =1.67*Word recall+1.35*Orientation+1.42*Word Recognition+0.55*Recall Instructions+0.81*Spoken Language+1.01*Word Finding+5.42*ONB+0.15*VPAL+0.19*Category Fluency+0.28*Belongings+0.35*Shopping+0.23*Hobbies+0.38*Beverage+0.37*Meal+0.23*Current Events+0.26*TV+0.33*Keeping Appointments+0.37*Travel+0.33*Alone+0.35*Appliance+0.49*Clothes+0.36*Read+0.62*Telephone+0.33*Writing
The primary efficacy variables are the change from baseline (CFB) in cognition as measured by an adapted ADAS-cog, CFB in function as measured by an adapted ADCS-ADL and a combination of CFB in cognition and function as measured by a combined composite:
ADAS-cog and other items included in the adapted ADAS-cog were measured at Visits 1, 2, 3, 5, 6, 7, 8, 9 and 10 or EDV. ADCS-ADL were measured at Visits 2, 5, 6, 7, 8, 9 and 10 or EDV. Items that contributing to the combined primary outcome were measured at Visits 2, 5, 6, 7, 8, 9 and 10 or EDV.
The primary efficacy outcomes all range from 0 to 100. […] Before a composite was calculated, contributing items that are scored in the opposite direction were reversed. […]

[3] = aluminium oxyhydroxide; cited from earlier work

With aluminium oxyhydroxide the “Musculoskeletal and Connective Tissue Disorders: Pain in Extremity: events” value ([1]; 1 mg s.c., N = 48) was 0, the “Musculoskeletal and Connective Tissue Disorders: Pain in Extremity: subjects %” value ([1]; 1 mg s.c., N = 48) was 0.0% and the “Musculoskeletal and Connective Tissue Disorders: Pain in Extremity: subjects n” value ([1]; 1 mg s.c., N = 48) was 0. For the same substance, the “Vascular Disorders: Haematoma: subjects n” value ([1]; 1 mg s.c., N = 48) was 0, the “Musculoskeletal and Connective Tissue Disorders: Pain in Extremity: events” value ([1]; 2 mg s.c., N = 51) was 1 and the “Musculoskeletal and Connective Tissue Disorders: Pain in Extremity: subjects n” value ([1]; 2 mg s.c., N = 51) was 1. For the same substance, the “Vascular Disorders: Haematoma: subjects n” value ([1]; 2 mg s.c., N = 51) was 0, the “parameters informing on the progression of the disease (change in Composite score)” value ([2]; 2 mg group vs 1 mg group, all patients, FIG. 1) was “compares favourably” and the “Adapted ADAS-cog: disease progression” value ([2]; 2 mg group, over 18 months, FIG. 3) was “Slowing of disease progression”. The “effect on disease progression (Composite score) in mild population” value ([2]; mild population (baseline MMSE score of 24 and higher), 2 mg vs 1 mg, FIG. 2) was “most pronounced in the cohort of patients in earlier disease stages” and the “point of zero charge” value [3] was roughly 11 pH.
